Source: patent US20250204528A1, “USE OF 2-AMINO-3-INDOLYL BUTYRIC ACID OR 3-METHYLPYRROLIDINE-2-CARBOXYLIC ACID AS PLANT IMMUNITY ELICITOR” (NANJING TIANNONG BIOTECHNOLOGY CO., LTD, priority 2021, published 2025)

Assays:
Assay type in all cases: in vivo
Arabidopsis thaliana = Arabidopsis thaliana under high temperature stress; design: Heat damage index: scale not given here; details: for Heat damage index: 45° C. 12 h, recovery 7 d; for PIABS: photosynthetic performance index after 45° C. 12 h; for Heat damage index reduced by: vs control group
Procedure: Arabidopsis thaliana seeds were sown in a pot with the diameter of 8.5 cm according to about 50 seeds per pot and planted in a greenhouse at 25° C. with the humidity of 60%-70% and the light intensity of 100 μmolm^−2s^−1 (16 h light/8 h dark). The treatment was started when the Arabidopsis thaliana normally grew for 21 d. Concentrations at 0 nm, 1 nm, 10 nm, 100 nm and 1,000 nm were set in the experiment. Meanwhile, 0.02% Tween 20 was added as a surfactant and four replicates were set. The spraying treatment was the same as that of the ryegrass in example 5. 24 h after the second spraying, the Arabidopsis thaliana was transferred to an illumination incubator at 45° C. for a high temperature stress treatment for 12 h. The chlorophyll fluorescences of the Arabidopsis thaliana leaf wafers were measured by using the plant efficiency Handy-PEA. The plants were taken out and transferred to the greenhouse at 25° C. for recovery for 7 d. The damage conditions of the plants were observed and counted, and the heat damage grades were calculated.

"Sikang 1" cotton = assay: Cotton under salt stress (100 mM NaCl); details: 100 mM NaCl three days; for Mortality (%): cotton plants
Procedure: An experimental material was “Sikang 1” cotton which was hydroponic in a 500-mL plastic cup, and a ½ Hoagland nutrient solution was replaced every other two days. When the cotton seedling grew until the second true leaves were completely unfolded, a 2-amino-3-indolyl butyric acid solution was sprayed on the leaf surfaces. Concentrations at 0 nm, 1 nm, 10 nm, 100 nm and 1,000 nm were set in the experiment. Meanwhile, 0.02% Tween 20 was added as a surfactant. The solution was sprayed every 24 h for 2 times and NaCl was added into a ½ Hoagland nutrient solution the next day after the treatment to make the final concentration of 100 mM to perform a salt stress treatment. Each treatment was performed in three replicates. A rehydration treatment was performed after three days of the salt stress. The salt damage symptoms of the cotton were observed and a salt damage index was calculated by using a calculation formula as follows.

wheat powdery mildew = assay: Field test of inducing wheat against infection by powdery mildew fungi; details: 1,000 nm
Procedure: Stems and leaves were sprayed with a 2-amino-3-indolyl butyric acid solution (0.02% by volume of a surfactant Tween 20 was added) at the concentration of 1,000 nm in a filed, sprayed with 0.02% by volume of the surfactant tween 20 as an auxiliary agent control and sprayed with 30 g/mu of ATaiLing as a positive control. Each treatment was repeated three times. The disease grade of the wheat after each treatment was investigated. The disease degree was recorded according to the wheat powdery mildew grading standard in the Guidelines for Field Efficacy Trials of Pesticides (I), and the disease indexes and the relative immune effects were calculated by using the same calculation formula as that of those of the tomato spotted wilt. After the harvested wheat seeds were air-dried, the thousand-grain weights of the wheat seeds after different treatments were measured.
Grading standard of wheat powdery mildew (taking leaves as units): • grade 1: the area of the disease spots accounted 5% or less of that of the whole leaves; • grade 3: the area of the disease spots accounted for 6%-15% of that of the whole leaves; and • grade 5: the area of the disease spots accounted for 16%-25% of that of the whole leaves; and • grade 7: the area of the disease spots accounted for 26%-50% of that of the whole leaves; and • grade 9: the area of the disease spots accounted for 50% or more of that of the whole leaves.

[1] = compared with the auxiliary agent control

Compound | Heat damage index (Arabidopsis thaliana; 1 nm) | PIABS (Arabidopsis thaliana; 1 nm) | Heat damage index (Arabidopsis thaliana; 10 nm) | PIABS (Arabidopsis thaliana; 10 nm) | Heat damage index (Arabidopsis thaliana; 100 nm) | PIABS (Arabidopsis thaliana; 100 nm) | PIABS increased by (times) compared with the control group (Arabidopsis thaliana; 1,000 nm) | Heat damage index (Arabidopsis thaliana; 1,000 nm) | PIABS (Arabidopsis thaliana; 1,000 nm) | Heat damage index reduced by (Arabidopsis thaliana; 1,000 nm) | Salt damage index (%) ("Sikang 1" cotton; 1 nm) | Mortality (%) ("Sikang 1" cotton; 1 nm) | Salt damage index (%) ("Sikang 1" cotton; 10 nm) | Mortality (%) ("Sikang 1" cotton; 10 nm) | Salt damage index (%) ("Sikang 1" cotton; 100 nm) | Mortality (%) ("Sikang 1" cotton; 100 nm) | Salt damage index (%) ("Sikang 1" cotton; 1,000 nm) | Mortality (%) ("Sikang 1" cotton; 1,000 nm) | also measured
CC1CCNC1C(=O)O (stereo not shown) [3-methylpyrrolidine-2-carboxylic acid] | 48 | 1.87 ± 0.03e | 37 | 4.06 ± 0.17 days | 30 | 6.53 ± 0.23c | 23 times | 8 | 10.26 ± 0.46b | 68% | 67% | 47% | 54% | 42% | 49% | 28% | 39% | 24% | 
CC(c1c[nH]c2ccccc12)C(N)C(=O)O (stereo not shown) | 58 | 0.90 ± 0.04e | 46 | 1.14 ± 0.15 days | 33 | 3.28 ± 0.20c | 20 times | 10 | 7.13 ± 0.23b | 65% | 63% | 45% | 57% | 43% | 53% | 33% | 44% | 27% | Relative immune effect (%) (wheat powdery mildew): 40.55%; Thousand-grain weight (wheat powdery mildew): 27.39 g; Thousand-grain weight (g) (wheat powdery mildew): 27.39 ± 0.29a g; Relative immune effect improved by (wheat powdery mildew; compared with Altailing control group): 12%; Relative immune effect improved by (wheat powdery mildew; [1]): 40%; Thousand-grain weight increased by (wheat powdery mildew; [1]): 10.80%; Disease index reduced by (wheat powdery mildew; vs auxiliary agent control group): 40.55%
